Results on four molecules are retold here after patent US10533018B2, “Antimicrobial prochelators to target drug-resistant bacteria and methods of making and using the same” (Duke University, priority 2015, dated 2020).

pIC50: −log10 of the molar value. Read-outs that look alike come from different tables or passages of the source.

The test system of assay [1] is clinical isolates of Klebsiella pneumonia (Klebs). As to the kind of experiment: Broth microdilution in Klebs clinical isolates. The class given is cell-based. The note with it: Klebsiella pneumoniae, LB broth, read-out: IC50. The source says:
(§1) Bacterial culture reagents including LB broth (Lennox), agar-agar, ampicillin, and ceftriaxone were purchased from Sigma Aldrich Corp. The Escherichia coli (E. coli) K12 strain HB101 and pGLO E. coli transformation kit purchased from Bio-Rad Laboratories Inc. HB101 was transformed with the bla gene via the pGLO plasmid. The bla gene encodes for a TEM-1 β-lactamase that imparts penicillin resistance to the mutant E. coli K-12 strain (+Bla). Strains E. coli UTI89, [27] pCOM-GFP-transformed E. coli UTI89 (pCOM-GFP), [28] and Methicillin-Resistant Staphylococcus aureus (MRSA) clone USA300 [29] have been previously described. The Extended-Spectrum β-Lactamase (ESBL) E. coli, Klebsiella pneumonia (Klebs), and Pseudomonas aeruginosa (Pseudo) strains were clinical isolates acquired deidentified from Duke Hospital and tested for antibiotic susceptibility in the Clinical Microbiology Laboratory using standard clinical susceptibility methods.
(§2) Cultures were incubated on LB (Lennox, Sigma) agar at 37° C. in ambient atmospheric composition. Before beginning an experiment, a single bacterial colony grown on LB agar was resuspended in 2 mL LB broth and incubated overnight to form a turbid cell suspension. The overnight culture was diluted 1:100 in LB and used immediately as the working culture. To assess the antibacterial activity of compounds, the working bacterial culture was aliquoted in a clear, flat-bottomed, 96-well polystyrene plate (Costar) and the compound of interest was added in 2-fold serial dilution from 500 to 1 μM. Plates were covered with a breathable sealing film (Aeroseal, Genesee Scientific) and incubated at 37° C. in ambient atmospheric composition with shaking at 200 rpm. Optical density at 600 nm was recorded after 4 h and 20 h for each well using a standard OD600 protocol with LB serving as the blank. The resulting dose-response curves were fit to a nonlinear regression in GraphPad Prism Version 6 to calculate the IC50 of DB4-51 in each strain.
Background: In broth dilution the organism is exposed to a series of concentrations in liquid medium.

The test system of assay [2] is resistant E. coli HB101 K-12 transformed to express β-lactamase. In words: microbe, parasite or virus in culture. The class given is cell-based, Escherichia coli. The following applies: Escherichia coli. As to the method: In order to determine the antibiotic activity of DB4-51, a debilitated strain of Escherichia coli (HB101 K-12) was transformed with the pGLO plasmid from Bio-Rad in order to express β-lactamase. This transformation was confirmed by growing on a selective medium containing 100 μg/ml ampicillin in Lennox LB with 1.5% agar. A broth microdilution assay was employed to determine the relative activity of DB4-51 against susceptible (HB 101 K-12, no β-lactamase) and resistant (HB 101 K-12 transformed to express β-lactamase) E. coli. […] The bacterial growth was monitored by recording each well's absorbance at 600 nm (OD600.) The OD600 values of E. coli suspensions incubated with various compounds were compared in order to assess their activities.
FIG. 7: OD600 of susceptible and resistant K-12 E. coli cultures against DB4-51 and known antibiotics as a function of concentration. Ampicillin has a penicillin core and cephalexin has a cephalosporin core. Cultures were grown in LB broth at 37° C. while shaking at 200 rpm for 18 hours and then diluted to an OD600 of 0.005 before adding the compounds. […]
(§3) Table 1: Calculated IC50 values for DB4-51, cephalexin, ampicillin, and pyrithione. These values were derived by fitting the data to a log dose-response curve and reporting the concentration corresponding to half the maximum OD600 value for each compound.

The subject of assay [3] is susceptible E. coli HB101 K-12 (no β-lactamase). In words: Broth microdilution (preliminary, Table 1), susceptible K-12. The class given is cell-based, Escherichia coli. The note with it: Escherichia coli; Susceptable K-12 E. coli; LB; OD600; preliminary results. The protocol:
In order to determine the antibiotic activity of DB4-51, a debilitated strain of Escherichia coli (HB101 K-12) was transformed with the pGLO plasmid from Bio-Rad in order to express β-lactamase. This transformation was confirmed by growing on a selective medium containing 100 μg/ml ampicillin in Lennox LB with 1.5% agar. A broth microdilution assay was employed to determine the relative activity of DB4-51 against susceptible (HB 101 K-12, no β-lactamase) and resistant (HB 101 K-12 transformed to express β-lactamase) E. coli. Using Lennox LB as the medium. serial dilutions of the test compounds were performed in a 96-well plate and then inoculated with E. coli before incubating for 16-20 hours at 35° C. The bacterial growth was monitored by recording each well's absorbance at 600 nm (OD600.) The OD600 values of E. coli suspensions incubated with various compounds were compared in order to assess their activities.
FIG. 7: OD600 of susceptible and resistant K-12 E. coli cultures against DB4-51 and known antibiotics as a function of concentration. Ampicillin has a penicillin core and cephalexin has a cephalosporin core. Cultures were grown in LB broth at 37° C. while shaking at 200 rpm for 18 hours and then diluted to an OD600 of 0.005 before adding the compounds. Plates were grown at 35° C. while shaking at 200 rpm and the OD600 was recorded after 18 hours.
as §3

The subject of another assay is UTI89 E. coli. In words: Broth microdilution growth inhibition (OD600). The format is cell-based, Escherichia coli. The note with it: for pIC50: Escherichia coli, UTI89 E. coli.
Source text: as §1, §2
(§4) The ability of DB4-162 to inhibit bacterial growth was assessed by a traditional broth microdilution method that assesses the turbidity of liquid cultures in the presence of varying concentrations of the compound. As described above for DB4-51, the antibacterial properties of the prochelator DB4-162 were assessed in non-pathogenic lab-strain HB101K-12 E. coli and compared to the pGLO-transfected mutant HB101K-12 E. coli that express β-lactamase. Clinically relevant pathogenic bacteria were also screened, including UTI89 E. coli, pCOM transfected UTI89 E. coli (pCOM), extended spectrum β-lactamase (ESBL) E. coli, methicillin-resistant Staphylococcus aureus (MRSA), and Klebsiella pneumonia (Klebs). In addition to being naturally resistant to many β-lactam antibiotics, MRSA can produce a number of β-lactamases. […] It should be noted that all of the bacteria tested are gram-negative except for gram-positive MRSA.
(§5) The goal of this screen was to calculate the IC50 of the prochelator in a series of pathogenic bacteria and compare these values to the IC50 of known antibiotics in those same strains to determine the relative effectiveness of DB4-162 against the drug-resistant and drug-susceptible bacteria in comparison to current antibiotic treatment options. Bacterial growth was monitored in LB broth at 37° C. in the presence and absence of DB4-162 for 20 hours. A concentration gradient of DB4-162 from 500 to 0 μM was used to screen all 7 strains of bacteria and the dose-response curves were fit to a […] to calculate the IC50 of DB4-162 in each strain. These IC50 values are an approximation of how effectively DB4-162 inhibits the growth of each bacterial strain in vitro.
(§6) IC50 values for ampicillin were calculated via broth microdilution in LB broth only. Values are listed as the mean followed by the 95% confidence interval about the mean. Mean and confidence intervals were calculated from a variable slope, nonlinear regression fit to the dose-response OD600 data. […]

The next assay concerns −Bla K-12 E. coli. As to the kind of experiment: microbe, parasite or virus in culture. The note with it: for pIC50: Escherichia coli, −Bla K-12 E. coli, read-out: IC50. The format is cell-based, Escherichia coli.
Source text: as §1, §2, §4, §5, §6

Another assay deals with +Bla K-12 E. coli. As to the kind of experiment: microbe, parasite or virus in culture. The class given is cell-based, Escherichia coli. The note with it: for pIC50: Escherichia coli, +Bla K-12 E. coli.
Source text: as §1, §2, §4, §5, §6

The test system of assay [4] is Methicillin-Resistant Staphylococcus aureus (MRSA). In words: microbe, parasite or virus in culture. The class given is cell-based. The following applies: for pIC50: Staphylococcus aureus.
Source text: as §1, §2, §4, §5, §6

Assay [5] relates to Klebsiella pneumonia (Klebs). As to the kind of experiment: Broth microdilution growth inhibition (OD600). The note with it: for pIC50: Klebsiella pneumoniae. The format is cell-based.
Source text: as §1, §2, §4, §5, §6

Assay [6] is described as follows: Calcein fluorescence assay for Cu competition. The format is physicochemical. The following applies: 2 μM calcein + 2.4 μM CuCl2, pH 7.4 PBS; 20 μM (10 equivalents) compound alone; 1 h. The protocol: FIG. 11: To solutions of 2 μM calcein in pH 7.4 PBS was added 2.4 μM CuCl2 and the samples were fully equilibrated at room temperature for 2 hours. Next, 20 μM TAT, 20 μM DB4-162, 0.1 units/mL β-lactamase were added and the fluorescence at 500 nm was recorded after one hour.
A calcein fluorescence assay for metal competition was utilized in order to evaluate the relative metal-binding affinity of DB4-51 compared to PT. The fluorescence intensity of the probe calcein is quenched by more than 90% upon binding Cu^2+. […] However, when incubated with 10 equivalents of DB4-51 and 0.1 units/mL Type III β-lactamase from Enterobacter cloacae, there is an 85% return in calcein fluorescence, which correlates well with the 90% return observed for PT itself at the same concentration.
FIG. 4: Relative Cu binding assay with DB4-51 and PT against calcein. Solutions of 2 μM calcein and 2.4 μM CuCl2 in pH 7.4 PBS were equilibrated at room temperature for 2 hours prior to addition of 20 μM PT, 20 μM DB4-51, and/or 0.1 units/mL β-lactamase (Bla).
The calcein assay was utilized in order to assess the relative copper chelating ability of the prochelator and TAT. The fluorescence emission of calcein is quenched by more than 90% in the presence of 1.2 equivalents of CuCl2 (FIG. 11). […] The addition of 0.1 units/mL β-lactamase alone has no effect on the quenched fluorescence signal of the Cu-calcein solution. […] However, when incubated with 10 equivalents of DB4-162 and 0.1 units/mL β-lactamase there is a 90% return in calcein fluorescence. […] While it is unclear why 10 equivalents of TAT are insufficient to out-compete calcein for copper, it may be related to the propensity of TAT to form other species in aqueous media.

In a further assay the test system is pCOM E. coli. As to the kind of experiment: microbe, parasite or virus in culture. The following applies: Escherichia coli, pCOM E. coli. The class given is cell-based, Escherichia coli.
Source text: as §1, §2, §4, §5, §6

For a further assay, the system named is ESBL E. coli. As to the kind of experiment: microbe, parasite or virus in culture. The class given is cell-based, Escherichia coli. The note with it: Escherichia coli, ESBL E. coli; LB broth.
Source text: as §1, §2, §4, §5, §6

One may read the pIC50 as −log10 of the IC50, conventionally taken in molar units.

On to `CO/N=C(\C(=O)N[C@@H]1C(=O)N2C(C(=O)O)=C(CSc3nc(=O)c(=O)[nH]n3C)CS[C@H]12)c1csc(N)n1` [Ceftriaxone], for which the pIC50 in [1] (Klebs Isolate 1) is 6.40; in assay [1] (Klebs Isolate 2), 6.15; in assay [1] (Klebs Isolate 3) it was 5.70; in assay [1] (Klebs Isolate 4) it was 6.00; in assay [1] (Klebs Isolate 5), 7.00; in [1] (Klebs Isolate 6), 6.52. Besides, the pIC50 in [1] (Klebs Isolate 7) is 6.52; in assay [1] (Klebs Isolate 8), 7.00; in assay [1] (Klebs Isolate 9), 4.14; in assay [1] (Klebs Isolate 10), 7.52; in assay [1] (Klebs Isolate 11), 8.00; in [1] (Klebs Isolate 12) it was 7.00. The negative-log IC50 (pIC50) in assay [1] (Klebs Isolate 13) is 6.00.

On to `CC1=C(C(=O)O)N2C(=O)[C@@H](NC(=O)[C@H](N)c3ccccc3)[C@H]2SC1` [Cephalexin], for which the pIC50 is 4.48 in [2] and 4.59 in [3].

For `[Cl][Cu][Cl]` [CuCl2], the reduction of growth entry in the assay with UTI89 E. coli (UTI89, concentrations up to 500 μM) is recorded as “less than 20%”; in assay [4] (concentrations up to 500 μM), “less than 20%”; in assay [5] (concentrations up to 500 μM), “less than 20%”. The increase of growth was 5-20% in the assay on −Bla K-12 E. coli (K-12 E. coli (−Bla), 10 μM supplemental CuCl2) and 5-20% in the assay with +Bla K-12 E. coli (K-12 E. coli (+Bla), 10 μM supplemental CuCl2).

Consider `Cc1csc(=S)n1O` [TAT, 3-hydroxy-4-methyl-2(3H)-thiazolethione], for which the pIC50 with UTI89 E. coli (LB + 10 μM CuCl2) was 5.05; in the assay on UTI89 E. coli (LB + 500 μM BCS), 4.42; in the assay with UTI89 E. coli (LB broth), 5.22; in the assay on pCOM E. coli (LB + 10 μM CuCl2), 5.15; with pCOM E. coli (LB + 500 μM BCS) it was 4.55; in the assay with pCOM E. coli (LB broth) it was 5.22. Moreover, the pIC50 in the assay on ESBL E. coli was 4.39; in the assay with −Bla K-12 E. coli (LB + 10 μM CuCl2), 4.44; in the assay on −Bla K-12 E. coli (LB + 500 μM BCS) it was 4.15; in the assay on −Bla K-12 E. coli (LB broth) it was 4.64; in the assay with +Bla K-12 E. coli (LB + 10 μM CuCl2) it was 4.42; in the assay on +Bla K-12 E. coli (LB + 500 μM BCS) it was 4.15. The pIC50 with +Bla K-12 E. coli (LB broth) was 4.44; in assay [4] (LB + 10 μM CuCl2), 5.00; in assay [4] (LB + 500 μM BCS) it was 4.54; in assay [4] (LB broth), 4.64; in assay [5] (LB + 10 μM CuCl2), 4.59; in assay [5] (LB + 500 μM BCS), 4.29. The same molecule gave a pIC50 in assay [5] (LB broth) of 4.85. The “return in calcein fluorescence” value in [6] is reported as 30%.
